{"source": "patent US20080207538A1", "about": "“Enhanced Production of Functional Proteins From Defective Genes” (priority 2004, published 2008)", "key": {"[1]": {"tested_on": "stop codon inserted into the reading frame of firefly luciferase", "assay": "stop codon read-through, dual luciferase assay in transfected 293T cells", "type": "cell-based, human", "settings": "relative to untreated transfected cells, 24 hour incubation", "procedure": "Plasmid construction. The wild type human fibroblast cell line GM02037 (Coriell Cell Repositories, NJ) was used as the DNA template for atm promoter amplification. In brief, the Qiagen Blood & Cell Culture DNA Mini kit was used to purify genomic DNA. ATM gene promoter primers, which were used to amplify the desired fragment DNA, were designed based on the sequence in Genebank. The forward primer sequence employed was […] (SEQ ID NO:1) and the reverse primer was […] (SEQ ID NO:2). PCR was carried out using the Roche Expand High Fidelity PCR system. The amplified atm promoter region was then cloned into the TOPO2.1 PCR vector (Invitrogen) for sequencing verification and subsequently subcloned into the promoterless plasmid PA3Luc. Firefly luciferase cDNA was mutated (QuikChange Site-Directed Mutagenesis Kit) in the desired region to furnish the three stop codons, as shown as FIG. 1(C). The CMV driven Renilla luciferase plasmid was purchased from Promega as the internal control for the dual luciferase assay.\nTransfections were performed using GeneJammer reagent (Stratagene) based on the protocol from the manufacturer. In brief, approximately […] HEK293T cells were seeded into white 96 well plates (Corning) and grown for less than 24 hours. Cells were transfected with 0.6 μL of GeneJammer and 0.1 μg plasmids. In the dual luciferase assay, the plasmid ratio of ATM promoter-driven firefly luciferase to CMV promoter-driven Renilla luciferase was 30:1. In the dual luciferase experiments that utilized the stop codon-containing firefly luciferase genes, the ratio was 40:1. On the second day after transfection, the medium in each well was changed, and the promoter and/or nonsense-suppressing agents added to the wells for a 24 hour incubation period. The cells were subsequently lysed and promoter activity/nonsense suppression efficiency then assessed via the dual luciferase assay.\nDual luciferase assay. The dual luciferase kit was purchased from Promega and the protocol employed was conducted according to the directions supplied by the manufacturer. In brief, cells were washed with PBS and lysates were prepared using passive lysis buffer. Luminescence was determined with a Molecular Devices Lmax 96 well plate luminometer. Light emission was measured after each of the 100 μL luminescence substrates and/or stop solutions were injected. ATM promoter activity was calculated by the ratio of relative light units of flash (firefly) to glow (renilla) luminescence in each well, which was compared with control wells (cultured only in medium with plasmid but no drug treatment) in each plate. In the case of the stop codon suppression studies, controls also included cells containing the plasmids without the inserted stop codon, which were treated with nonsense suppressing and/or promoter activating agents. All individual treatments in a given experiment were performed in triplicate and all experiments repeated 3-10 times.\nAn evaluation was made of the ability of aminoglycosides, in combination with promoter activating agents, to augment read-through of a stop codon inserted into the reading frame of firefly luciferase (FIG. 1C)."}, "[2]": {"tested_on": "animal models of cystic fibrosis and Duchenne muscular dystrophy", "settings": "reported; cited from earlier work"}, "[3]": {"tested_on": "patients with sickle-cell anemia", "settings": "Perrine et al., 1993; cited from earlier work"}, "nonsense mutations": {"tested_on": "nonsense mutations", "settings": "reported, Keeling and Bedwell, 2002; cited from earlier work"}, "atm promoter": {"tested_on": "atm promoter", "assay": "cell-based screen for atm promoter enhancing agents (atm/pA3LUC dual luciferase, 293T cells)", "design": "species or system human", "settings": "transiently transfected 293T cells; firefly/renilla luciferase", "from_the_text": "Plasmid construction. The wild type human fibroblast cell line GM02037 (Coriell Cell Repositories, NJ) was used as the DNA template for atm promoter amplification. In brief, the Qiagen Blood & Cell Culture DNA Mini kit was used to purify genomic DNA. ATM gene promoter primers, which were used to amplify the desired fragment DNA, were designed based on the sequence in Genebank. The forward primer sequence employed was […] (SEQ ID NO:1) and the reverse primer was GCCACGGGAGGAGGCGAG (SEQ ID NO:2). PCR was carried out using the Roche Expand High Fidelity PCR system. […]\nTransfections were performed using GeneJammer reagent (Stratagene) based on the protocol from the manufacturer. […] The cells were subsequently lysed and promoter activity/nonsense suppression efficiency then assessed via the dual luciferase assay.\nDual luciferase assay. […] Luminescence was determined with a Molecular Devices Lmax 96 well plate luminometer. Light emission was measured after each of the 100 μL luminescence substrates and/or stop solutions were injected. ATM promoter activity was calculated by the ratio of relative light units of flash (firefly) to glow (renilla) luminescence in each well, which was compared with control wells (cultured only in medium with plasmid but no drug treatment) in each plate. […]"}, "atm message": {"tested_on": "atm message", "assay": "atm mRNA quantitation by real time PCR (RT-PCR) after drug treatment", "type": "cell-based, human", "settings": "for Fold-increase (atm message levels): relative to untreated cell line", "procedure": "Cell culture and transfection. Human Kidney HEK293T cell was a gift from Professor Philipp Scherer in the Department of Cell Biology at the Albert Einstein College of Medicine. All other cell lines were purchased from Coriell Cell Repositories, NJ. HEK293T cells were maintained in Dulbecco's Modified Eagle Medium with 1 g/L D-glucose and 10% fetal bovine serum. The Human AT fibroblast cell line GM05823 was cultured in MEM medium with 1 g/L D-glucose and 15% fetal bovine serum. The Human lympoblastoid cell lines GM 13810 and GM13860 were cultured in RPMI 1640 medium with 10% heat inactivated fetal bovine serum and 1 g/L of D-glucose. All cell lines were incubated at 37° C. in a humidified 5% CO2 atmosphere.\nmRNA Quantitation. Single-stranded cDNAs were synthesized by reverse transcription, using a First Strand cDNA Synthesis kit (Invitrogen), and then used as a template in polymerase chain reactions. ATM mRNA was primarily quantified using real time polymerase chain reaction (PCR). In brief, cells were treated with the desired drugs or combinations thereof under conditions identical to those described above for the dual luciferase assay. Cells were lysed and RNA extracted with the TRIzol reagent (Invitrogen). Approximately 1 μg of total RNA in each sample was subjected to CDNA synthesis using the First Strand cDNA Synthesis kit (Invitrogen). In the real time PCR reaction, the FAM labeled MGB probe, CCAGCTATTTGGTTTGAG (SEQ ID NO:3), was designed by the Primer Express software from Applied Biosystems (AB) and synthesized by AB. The human β-actin MGB probes, VIC or FAM fluorescently labeled, were purchased from AB. All other reaction reagents were purchased from AB. PCR reactions were performed using the ABI PRISM 7000 Sequence Detection System in triplicate. Some samples were also tested on the ABI 7700 Sequence Detection System for verification and essentially identical results were obtained with both real time PCR instruments. All collected data were compared with a […] control. In addition to real time PCR, the branched chain DNA (bDNA) RNA quantitation method was employed as well. Briefly, the QuantiGene kit as well as the customer designed atm probe sets were purchased from Genospectra. The latter probes target the same region on the atm message RNA region as the real time PCR probes. The cells were treated as described above for the dual luciferase assay. Cell lysates were transferred into a capture plate and atm mRNA allowed to hybridize with the probe set at 53° C. overnight. After 16-20 hours, the signal was amplified and subsequently read using a Molecular Devices Lmax luminometer. The internal human β-actin probe sets were purchased from Genospectra. All experiments were performed in triplicate.\nThe effect of ofloxacin on native atm message levels was subsequently examined in 293T cells as well as in lymphoblastoid and primary fibroblast cell lines derived from A-T patients (Table 1). Message levels are enhanced 2.4±0.1 fold in 293T cells treated with ofloxicin for 24 hours. By contrast, an up to nearly 6-fold increase is observed in ATM-deficient (A-T) cell lines. The latter results offer the intriguing possibility that atm message levels are elevated more dramatically in an ATM-deficient environment."}}, "data": [{"compound": "CN[C@@H]1[C@@H](O)[C@@H](O[C@@H]2[C@@H](O)[C@H](O[C@H]3O[C@H]([C@@H](C)O)[C@@H](O)[C@H](O)[C@H]3N)[C@@H](N)C[C@H]2N)OC[C@]1(C)O", "note": "[Geneticin, geneticin]", "values": [{"measurement": "Fold-increase (read-through)", "setting": "[1]; amber (UAG) stop codon", "result": "14.9 ± 1.9", "unit": "fold"}, {"measurement": "Fold-increase (read-through)", "setting": "[1]; ochre (UAA) stop codon", "result": "7.9 ± 3.0", "unit": "fold"}, {"measurement": "Fold-increase (read-through)", "setting": "[1]; opal (UGA) stop codon", "result": "6.5 ± 0.8", "unit": "fold"}]}, {"compound": "O=C(O)c1cccc(-c2noc(-c3ccccc3F)n2)c1", "note": "[PTC124]", "values": [{"measurement": "efficacy in animal models", "setting": "[2]", "result": "effective"}]}, {"compound": "CCCC(=O)[O-].[Na+]", "note": "[Sodium butyrate, sodium butyrate]", "values": [{"measurement": "toxicity in patients", "setting": "[3]", "result": "minimal toxicity"}]}, {"compound": "gentamicin", "values": [{"measurement": "Fold-increase (read-through)", "setting": "[1]; amber (UAG) stop codon", "result": "8.2 ± 1.8", "unit": "fold"}, {"measurement": "Fold-increase (read-through)", "setting": "[1]; ochre (UAA) stop codon", "result": "6.7 ± 1.5", "unit": "fold"}, {"measurement": "Fold-increase (read-through)", "setting": "[1]; opal (UGA) stop codon", "result": "8.7 ± 1.2", "unit": "fold"}, {"measurement": "effectiveness at suppressing nonsense mutations compared with tobramycin", "setting": "nonsense mutations", "result": "more effective"}]}, {"compound": "Nc1nc2nc[nH]c2c(=S)[nH]1", "note": "[Thioguanine, thioguanine]", "values": [{"measurement": "activation of the atm promoter", "setting": "atm promoter", "result": "induce atm promoter activity"}]}, {"compound": "CC1COc2c(N3CCN(C)CC3)c(F)cc3c(=O)c(C(=O)O)cn1c23", "note": "(stereo not shown) [Ofloxacin, ofloxacin]", "values": [{"measurement": "Message levels enhanced (atm)", "setting": "atm message; 293T cells, treated for 24 hours", "result": "2.4±0.1", "unit": "fold"}, {"measurement": "increase in atm message levels", "setting": "atm message; ATM-deficient (A-T) cell lines, summary of Table 1", "result": "≤ 6", "unit": "fold"}, {"measurement": "Fold-increase (atm message levels)", "setting": "atm message; GM05823 (A-T) fibroblast cell line, 2 hours after ofloxacin", "result": "2.2 ± 0.1", "unit": "fold"}, {"measurement": "Fold-increase (atm message levels)", "setting": "atm message; GM05823 (A-T) fibroblast cell line, 6 hours after ofloxacin", "result": "3.0 ± 0.2", "unit": "fold"}, {"measurement": "Fold-increase (atm message levels)", "setting": "atm message; GM05823 (A-T) fibroblast cell line, 24 hours after ofloxacin", "result": "5.8 ± 0.4", "unit": "fold"}, {"measurement": "Fold-increase (atm message levels)", "setting": "atm message; GM13810 (A-T) lymphoblastoid cell line, 2 hours after ofloxacin", "result": "1.2 ± 0.2", "unit": "fold"}, {"measurement": "Fold-increase (atm message levels)", "setting": "atm message; GM13810 (A-T) lymphoblastoid cell line, 6 hours after ofloxacin", "result": "2.3 ± 0.3", "unit": "fold"}, {"measurement": "Fold-increase (atm message levels)", "setting": "atm message; GM13810 (A-T) lymphoblastoid cell line, 24 hours after ofloxacin", "result": "5.4 ± 0.7", "unit": "fold"}, {"measurement": "Fold-increase (atm message levels)", "setting": "atm message; GM13860 (A-T) lymphoblastoid cell line, 2 hours after ofloxacin", "result": "3.8 ± 0.9", "unit": "fold"}, {"measurement": "Fold-increase (atm message levels)", "setting": "atm message; GM13860 (A-T) lymphoblastoid cell line, 6 hours after ofloxacin", "result": "2.3 ± 0.3", "unit": "fold"}, {"measurement": "Fold-increase (atm message levels)", "setting": "atm message; GM13860 (A-T) lymphoblastoid cell line, 24 hours after ofloxacin", "result": "3.3 ± 0.3", "unit": "fold"}]}, {"compound": "NCC[C@H](O)C(=O)N[C@@H]1C[C@H](N)[C@@H](O[C@H]2O[C@H](CN)[C@@H](O)[C@H](O)[C@H]2O)[C@H](O)[C@H]1O[C@H]1O[C@H](CO)[C@@H](O)[C@H](N)[C@H]1O", "note": "[amikacin]", "values": [{"measurement": "effectiveness at suppressing nonsense mutations compared with tobramycin", "setting": "nonsense mutations", "result": "more effective"}]}]}
